# Measured values from article PMC9737981, “Molecular Hybridization Strategy on the Design, Synthesis, and Structural Characterization of Ferrocene-N-acyl Hydrazones as Immunomodulatory Agents” (Molecules, 2022).
# Legend:
# J774 macrophages = assay: Cytotoxicity to J774 macrophages (Alamar Blue); assay type: cell-based; details: 72 h, read-out: CC50 (µM) JJ74
# Method: J774 macrophages were seeded into 96-well plates at a cell density of 1 × 10^4 cells/well in a DMEM medium supplemented with 10% fetal bovine serum (FBS; GIBCO) and 50 µg/mL of gentamicin (Life Technologies, Carlsbad, CA, USA) and incubated for 24 h at 37 °C and 5% CO2. After that time, each compound was added in six concentrations (50–1.56 µM), in triplicate, and incubated for 72 h. At the end of treatment, 20 µL/well of Alamar Blue (Invitrogen) was added to the plates for 4 h. […]
# As a positive control, gentian violet was used at concentrations ranging from 0.04 to 10 µM. CC50 values were calculated using data from three independent experiments.
# To determine the cytotoxicity concentration of 50% of J774 macrophages (CC50), we used non-linear regression. One-way analysis of variance and Newman–Keuls multiple comparison tests were employed by using Graph Pad Prism version 8.0.1 (Graph Pad Software; San Diego, CA, USA). Differences were considered significant when the values of p were < 0.05. The data are representative of at least two or three experiments.
# nitric oxide production = assay: Inhibition of nitric oxide (nitrite) production in J774 macrophages stimulated with LPS + IFN-γ (Griess); assay type: cell-based; details: for Inhibition of NO (%) Production at 40 μM: 24 h incubation with compounds and LPS plus IFN-γ
# Method: (§1) Immortalized J774 macrophages (2 × 10^5 cells/well) or peritoneal macrophages (2 × 10^5 cells/well) were incubated in 96-well plates in a DMEM medium supplemented with 10% FBS and 50 µg/mL of gentamicin, in triplicate, stimulated or not with LPS (500 ng/mL) and IFN-γ (5 ng/mL), and treated or not with different concentrations of the evaluated ferrocenyl-N-acyl hydrazones. The cells were incubated for 4 or 24 h at 37 °C and 5% CO2. Cell-free supernatants were collected after 4 h (for TNFα measurement) and 24 h (for IL-1β, TNFα, and nitrite quantifications), and kept at −80 °C until use.
# (§2) The dosage of cytokines IFN-γ, IL-1β, IL-2, IL-4, and TNFα was performed from the supernatant of peritoneal macrophages or splenocytes were determined by enzyme-linked immunosorbent assay (ELISA), using DuoSet kits from R&D Systems, according to the manufacturer’s instructions. Nitric oxide production was estimated in macrophage culture supernatants harvested at 24 h using the Griess method for nitrite quantification.
# peritoneal macrophages = assay: Cytotoxicity to peritoneal macrophages activated with LPS + IFNγ (Alamar Blue); assay type: cell-based, BALB/c mice
# Method: The second set of experiments was performed using peritoneal macrophages activated with LPS (500 ng/mL, Sigma-Aldrich) and IFNγ (5 ng/mL; Sigma-Aldrich).
# Peritoneal exudate macrophages were obtained by washing, with a cold DMEM medium, the peritoneal cavity of BALB/c mice 4–5 days after injection of 3% thioglycolate (Sigma-Aldrich) in saline (1.5 mL per mouse). Cells were seeded into 96-well plates at a cell density of 1 × 10^5 cells/well in a DMEM medium supplemented with 10% FBS and 50 µg/mL of gentamicin and incubated for 24 h at 37 °C and 5% CO2. […] At the end of treatment, 20 µL/well of Alamar Blue (Invitrogen) were added to the plates for 10 h. Colorimetric readings were performed at 570 and 600 nm using a SpectraMax 190 Microplate Reader (Molecular Devices, Sunnyvale, CA, USA).
# nitrite production = assay: Nitrite production by activated peritoneal macrophages (Griess); assay type: cell-based, BALB/c mice; details: LPS + IFN-γ
# Method: as §1, §2
# TNFα = TNFα production by peritoneal macrophages stimulated with LPS + IFN-γ (ELISA); assay type: cell-based, BALB/c mice
# Method: as §1, §2
# IL-1β = IL-1β production by peritoneal macrophages stimulated with LPS + IFN-γ (ELISA); assay type: cell-based, BALB/c mice
# Method: as §1, §2
# IL-2 = IL-2 production by splenocytes stimulated with concanavalin A (ELISA); assay type: cell-based, BALB/c mice; details: Con A 5 µg/mL, 24 h
# Method: (§3) BALB/c splenocyte suspensions were prepared in a DMEM medium supplemented with FBS and gentamicin. Splenocytes (5 × 10^6 cells/well) were plated in 24-well plates, in triplicate, and stimulated or not with concanavalin A (Con A; 5 µg/mL, Sigma-Aldrich). To evaluate lymphocyte function, splenocytes were activated in the absence or presence of various concentrations of SintMed149 and SintMed150 (10, 20, and 40 µM). After 24 h of treatment, cell-free supernatants were collected and kept at −80 °C until use.
# as §2
# IL-4 = IL-4 production by splenocytes stimulated with concanavalin A (ELISA); assay type: cell-based, BALB/c mice; details: Con A 5 µg/mL, 24 h
# Method: as §3, §2
# IFN-γ = IFN-γ production by splenocytes stimulated with concanavalin A (ELISA); assay type: cell-based, BALB/c mice; details: 10 µM; Con A 5 µg/mL; 24 h
# Method: as §3, §2
# [1] = tested on: LPS-induced endotoxic shock; assay: LPS-induced endotoxin shock (survival); assay type: in vivo, BALB/c mice; details: 25 mg/kg, lethal LPS, monitored 4 days
# Method: Groups of five male BALB/c mice (4 weeks of age) were used for the LPS lethality assays. Mice were treated with different doses of SintMed150 (50 or 100 mg/kg), dexamethasone (25 mg/kg), or vehicle (solution containing 30% sorbitol, 10% Tween 80, and 60% saline), by intraperitoneal (i.p.) route. Ninety minutes later, animals were challenged with 600 µg of LPS (from serotype 0111:B4 Escherichia coli, Sigma-Aldrich) in saline, by i.p. route. The survival rate was then monitored daily during 4 days.
# [2] = tested on: carrageenan-induced acute peritonitis; assay: Carrageenan-induced acute peritonitis (neutrophil migration); assay type: in vivo, BALB/c mice; details: 25 mg/kg; compared to vehicle
# Method: Next, animals were challenged with a 250 μL injection of carrageenan (1 mg/mL; intraperitoneal route). After 4 h, animals were euthanized and peritoneal exudates were harvested by peritoneal lavage using 2.5 mL of saline solution. Cells were centrifuged at 400× g for 10 min, at 4 °C. The pellet was resuspended in saline (1 mL). Total leukocytes in the peritoneal fluid were determined in a Neubauer chamber after dilution in Trypan blue stain. Differential counting of neutrophils was carried out in rapid panotype-stained cytospin preparations. A differential count of 300 cells was made in a blinded fashion and according to standard morphologic criteria.
Structure (SMILES),CC50 (J774 macrophages),Inhibition of NO (%) Production at 40 μM (nitric oxide production),other results
"CC(C)(C)c1cc(C(=O)N/N=C/[c-]2cccc2)cc(C(C)(C)C)c1O.[Fe+2].c1cc[cH-]c1 [SintMed146, (E)-N′-(Ferrocenylmethylidene)-3,5-tert-butyl-4-hydroxybenzohydrazide]",> 50 µM,14.4 (±2.2) %,–
"COc1cc(C(=O)N/N=C/[c-]2cccc2)cc(OC)c1OC.[Fe+2].c1cc[cH-]c1 [SintMed153, (E)-N′-(Ferrocenylmethylidene)-3,4,5-trimethoxybenzohydrazide]",> 50 µM,43.7 (±3.3) %,–
"O=C(N/N=C/[c-]1cccc1)c1cc(O)c(O)c(O)c1.[Fe+2].c1cc[cH-]c1 [SintMed151, (E)-N′-(Ferrocenylmethylidene)-3,4,5-trihydroxybenzohydrazide]",> 50 µM,25.2 (±2.1) %,–
"O=C(N/N=C/[c-]1cccc1)c1ccccc1Cl.[Fe+2].c1cc[cH-]c1 [SintMed142, (E)-N′-(Ferrocenylmethylidene)-2-chlorobenzohydrazide]",> 50 µM,49.3 (±0.8) %,–
"O=C(N/N=C/[c-]1cccc1)c1ccccc1.[Fe+2].c1cc[cH-]c1 [SintMed141, (E)-N′-(Ferrocenylmethylidene)benzohydrazide]",> 50 µM,19.7 (±3.0) %,–
"COc1ccc(C(=O)N/N=C/[c-]2cccc2)c(OC)c1.[Fe+2].c1cc[cH-]c1 [SintMed156, (E)-N′-(Ferrocenylmethylidene)-2,4-dimethoxybenzohydrazide]",> 50 µM,46.7 (±3.0) %,–
"O=C(N/N=C/[c-]1cccc1)c1cccc(Cl)c1.[Fe+2].c1cc[cH-]c1 [SintMed154, (E)-N′-(Ferrocenylmethylidene)-3-chlorobenzohydrazide]",> 50 µM,45.2 (±2.1) %,–
"O=C(N/N=C/[c-]1cccc1)c1ccc(C(F)(F)F)cc1.[Fe+2].c1cc[cH-]c1 [SintMed147, (E)-N′-(Ferrocenylmethylidene)-4-(trifluoromethyl)benzohydrazide]",> 50 µM,59.9 (±0.3) %,–
"O=C(N/N=C/[c-]1cccc1)c1ccccc1Br.[Fe+2].c1cc[cH-]c1 [SintMed149, (E)-N′-(Ferrocenylmethylidene)-2-bromobenzohydrazide]",> 50 µM,71.7 (±3.6) %,"Cytotoxicity (cell viability) in peritoneal macrophages (peritoneal macrophages; all concentrations tested (10, 20, 40 µM)): not cytotoxic; Nitrite production (nitrite production; 10, 20 and 40 µM, p < 0.05): inhibited, in a concentration-dependent manner; TNF production (TNFα; 10, 20 and 40 µM, 4 h, p < 0.05): inhibitory effect; IL-1β production (IL-1β; 10, 20 and 40 µM, 24 h, p < 0.05): inhibitory effect; IL-2 levels (IL-2; 10, 20, 40 µM): significant and concentration-dependent reduction; IL-4 levels (IL-4; 10, 20, 40 µM): did not significantly reduce"
"COc1cc(C(=O)N/N=C/[c-]2cccc2)cc(OC)c1OC.[Fe+2].c1cc[cH-]c1 [SintMed152, (E)-N′-(Ferrocenylmethylidene)-3,4,5-trimethoxybenzohydrazide]",> 50 µM,55.5 (±1.7) %,–
"C[C@@H]1C[C@H]2[C@@H]3CCC4=CC(=O)C=C[C@]4(C)[C@@]3(F)[C@@H](O)C[C@]2(C)[C@@]1(O)C(=O)CO [Dexamethasone, reference compound]",–,–,"inhibition at 40 µM (nitric oxide production; Mus musculus, J774, 24 h incubation with compounds and LPS plus IFN-γ, read-out: Inhibition of NO (%) Production at 40 μM): 64.9%; Cytotoxicity (cell viability) in peritoneal macrophages (peritoneal macrophages; 40 µM): not cytotoxic; Nitrite production (nitrite production; 10 µM): promoted the reduction; TNF production (TNFα; 10 µM): promoted the reduction; IL-1β production (IL-1β; 10 µM): promoted the reduction; IL-2 levels (IL-2; 10 µM): significantly reduced; IL-4 levels (IL-4; 10 µM): significantly reduced; IFN-γ levels (IFN-γ): significantly reduced; Survival rate [1]: 83.3%; Reduction in neutrophil migration [2]: 55%"
"O=C(N/N=C/[c-]1cccc1)c1cccc2ccccc12.[Fe+2].c1cc[cH-]c1 [SintMed155, (E)-N′-(Ferrocenylmethylidene)-1-naphtylcarbohydrazide]",> 50 µM,35.6 (±0.7) %,–
"O=C(N/N=C/[c-]1cccc1)c1ccco1.[Fe+2].c1cc[cH-]c1 [SintMed143, (E)-N′-(Ferrocenylmethylidene)furan-2-ylcarbohydrazide]",> 50 µM,49.2 (±1.9) %,–
"N#Cc1ccc(C(=O)N/N=C/[c-]2cccc2)cc1.[Fe+2].c1cc[cH-]c1 [SintMed144, (E)-N′-(Ferrocenylmethylidene)-4-cyanobenzohydrazide]",> 50 µM,55.2 (±0.6) %,–
"Cc1ccccc1C(=O)N/N=C/[c-]1cccc1.[Fe+2].c1cc[cH-]c1 [SintMed148, (E)-N′-(Ferrocenylmethylidene)-2-methylbenzohydrazide]",> 50 µM,56.6 (±2.1) %,–
"O=C(N/N=C/[c-]1cccc1)c1ccc2ccccc2n1.[Fe+2].c1cc[cH-]c1 [SintMed145, (E)-N′-(Ferrocenylmethylidene)quinolin-2-ylcarbohydrazide]",> 50 µM,49.6 (±2.6) %,–
